The term IC50 denotes the point on the concentration scale where inhibition reaches its midpoint. As a reminder, the GI50 is the concentration giving 50% growth inhibition. Broadly, the melting point is the temperature of the solid-liquid transition.

Consider 17 molecules from article PMC6930582, “Synthesis and Evaluation of Novel 2H-Benzo[e]-[1,2,4]thiadiazine 1,1-Dioxide Derivatives as PI3Kδ Inhibitors” (Molecules, 2019).

SMILES strings stand for the structures. “Also recorded” adds a separate entry of the source. Where two headings read alike, the source gives them in different places.

Data set [1] concerns the target PI3Kδ (Homo sapiens, UniProt O00329). Kind of data set: PI3Kδ kinase assay (ADP-Glo luminescent assay). In kind it is biochemical. The settings on record: for IC50: ADP-Glo, mean ± SD from two separate experiments, Table 1 and text, read-out: PI3Kδ inhibitory activity IC50; for PI3Kδ inhibitory activity (in words): qualitative statement; for decrease in PI3Kδ potency on introduction of 7-fluorine: compared with the non-fluorinated analogue. For orientation: In ADP-Glo the light output rises with the ADP produced.

Data set [2] deals with T1, PI3Kα (Homo sapiens, UniProt P42336). As to the kind of experiment: PI3Kα kinase assay (kinase-Glo luminescent assay). Type of data set: biochemical. The settings on record: for IC50: kinase-Glo, mean ± SD from two separate experiments. In general terms: Kinase-Glo reads ATP consumption through a luciferase reaction.
Data set [3] addresses T2, PI3Kβ (Homo sapiens, UniProt P42338). Kind of data set: PI3Kβ kinase assay (ADP-Glo luminescent assay). In kind it is biochemical. The settings on record: for IC50: ADP-Glo, mean ± SD from two separate experiments.
For data set [4], the target named is T3, PI3Kγ (Homo sapiens, UniProt P48736). Kind of data set: PI3Kγ kinase assay (ADP-Glo luminescent assay). Type of data set: biochemical. The settings on record: mean ± SD from two separate experiments.
Data set [5] has as its system SU-DHL-6 cells. As to the kind of experiment: SU-DHL-6 cell proliferation assay (CellTiter-Glo). Type of data set: cell-based, human. The settings on record: for GI50: Homo sapiens, SU-DHL-6 cell growth inhibition, CellTiter-Glo, mean ± SD from two separate experiments; for SU-DHL-6 cell proliferation inhibition (in words): qualitative statement. As to the method:
The selective PI3Kδ inhibitors 15a and 15b were further evaluated for their antiproliferative activity against human B-cell SU-DHL-6.
Cell proliferation was evaluated by The CellTiter-Glo luminescent cell viability assay (Promega, Shanghai, China) was used to evaluate the inhibitory activity of compounds 15a and 15b following the manufacturer’s protocol. In brief, SU-DHL-6 (ATCC) cells were seeded in 96-well plates (Corning, Los Altos, MA, USA) at density of 1 × 10^4 cells per well, and incubated with medium alone or with the tested compounds at the indicated concentrations (50 μM in DMSO, 3-fold dilution, in duplicate for 10 concentrations). 50 μL CellTiter-Glo (Promega, Shanghai, China) reagent was added to each well to induce cell lysis, and the plate was incubated at room temperature for 10 min to stabilize luminescent signal. After 100 μL of the mixture from each well was transferred to a new 96-well black plate, the […] signal was read on EnVision (Shanghai, China) and the data were analysized by XLFit 4 software (IDBS, Berlin, Germany).

Data set [6] addresses T3, PI3Kγ. On the set-up: method as in PMID 29601991. The settings on record: quinazolinone leads, previous work; ref [33]; cited from earlier work.
For data set [7], the target named is T1, PI3Kα. On the set-up: method as in PMID 29601991. The settings on record: quinazolinone leads, previous work; ref [33]; cited from earlier work.
In data set [8] the target is T2, PI3Kβ. On the set-up: method as in PMID 29601991. The settings on record: quinazolinone leads, previous work; ref [33]; cited from earlier work.

T1 sequence (P42336 whole entry): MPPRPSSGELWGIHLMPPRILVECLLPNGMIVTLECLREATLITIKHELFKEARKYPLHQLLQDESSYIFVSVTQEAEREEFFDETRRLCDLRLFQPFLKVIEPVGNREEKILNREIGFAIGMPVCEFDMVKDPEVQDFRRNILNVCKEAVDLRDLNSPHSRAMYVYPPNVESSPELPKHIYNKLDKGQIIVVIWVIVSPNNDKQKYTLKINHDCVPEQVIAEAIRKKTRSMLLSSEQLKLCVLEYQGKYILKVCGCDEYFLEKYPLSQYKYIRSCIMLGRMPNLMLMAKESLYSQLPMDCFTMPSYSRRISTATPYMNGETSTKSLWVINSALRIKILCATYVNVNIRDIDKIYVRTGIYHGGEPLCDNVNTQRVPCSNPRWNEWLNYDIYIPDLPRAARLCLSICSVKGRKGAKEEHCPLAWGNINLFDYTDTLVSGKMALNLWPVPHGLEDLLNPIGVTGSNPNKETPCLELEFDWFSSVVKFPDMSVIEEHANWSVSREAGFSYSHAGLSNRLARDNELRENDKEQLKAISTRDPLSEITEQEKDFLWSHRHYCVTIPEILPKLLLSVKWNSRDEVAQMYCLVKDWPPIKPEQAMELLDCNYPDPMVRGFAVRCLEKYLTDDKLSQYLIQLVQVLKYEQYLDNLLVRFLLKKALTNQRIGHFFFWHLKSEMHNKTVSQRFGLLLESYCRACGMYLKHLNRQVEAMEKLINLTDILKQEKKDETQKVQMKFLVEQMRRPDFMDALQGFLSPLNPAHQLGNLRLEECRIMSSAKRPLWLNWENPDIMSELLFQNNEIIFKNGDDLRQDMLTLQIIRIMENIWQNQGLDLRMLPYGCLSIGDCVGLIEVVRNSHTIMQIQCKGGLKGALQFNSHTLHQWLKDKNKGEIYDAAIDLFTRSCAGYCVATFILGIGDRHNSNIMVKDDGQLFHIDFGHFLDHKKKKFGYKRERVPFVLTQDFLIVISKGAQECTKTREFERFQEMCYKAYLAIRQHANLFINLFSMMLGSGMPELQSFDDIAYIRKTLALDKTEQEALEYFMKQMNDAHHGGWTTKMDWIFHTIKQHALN
T1 sequence (P27986 whole entry partner): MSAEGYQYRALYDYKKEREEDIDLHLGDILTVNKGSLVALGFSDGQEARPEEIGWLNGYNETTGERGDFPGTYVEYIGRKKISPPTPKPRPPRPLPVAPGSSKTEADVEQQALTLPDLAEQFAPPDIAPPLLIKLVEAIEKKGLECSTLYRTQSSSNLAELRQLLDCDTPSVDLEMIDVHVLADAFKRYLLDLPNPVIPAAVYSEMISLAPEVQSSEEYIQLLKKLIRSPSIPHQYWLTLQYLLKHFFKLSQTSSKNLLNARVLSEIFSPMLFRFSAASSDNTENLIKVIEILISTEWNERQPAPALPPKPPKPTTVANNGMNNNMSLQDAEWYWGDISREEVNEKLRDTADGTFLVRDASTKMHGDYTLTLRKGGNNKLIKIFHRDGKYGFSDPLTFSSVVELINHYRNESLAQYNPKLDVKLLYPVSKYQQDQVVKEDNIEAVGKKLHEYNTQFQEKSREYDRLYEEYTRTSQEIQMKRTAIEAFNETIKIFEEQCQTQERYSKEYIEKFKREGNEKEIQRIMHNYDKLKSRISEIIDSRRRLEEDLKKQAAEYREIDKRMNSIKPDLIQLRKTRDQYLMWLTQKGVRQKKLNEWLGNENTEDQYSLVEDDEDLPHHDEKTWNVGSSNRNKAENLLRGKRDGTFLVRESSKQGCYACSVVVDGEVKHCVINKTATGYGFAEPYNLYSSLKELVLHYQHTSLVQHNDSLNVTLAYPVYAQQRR
T3 sequence (P48736 whole entry): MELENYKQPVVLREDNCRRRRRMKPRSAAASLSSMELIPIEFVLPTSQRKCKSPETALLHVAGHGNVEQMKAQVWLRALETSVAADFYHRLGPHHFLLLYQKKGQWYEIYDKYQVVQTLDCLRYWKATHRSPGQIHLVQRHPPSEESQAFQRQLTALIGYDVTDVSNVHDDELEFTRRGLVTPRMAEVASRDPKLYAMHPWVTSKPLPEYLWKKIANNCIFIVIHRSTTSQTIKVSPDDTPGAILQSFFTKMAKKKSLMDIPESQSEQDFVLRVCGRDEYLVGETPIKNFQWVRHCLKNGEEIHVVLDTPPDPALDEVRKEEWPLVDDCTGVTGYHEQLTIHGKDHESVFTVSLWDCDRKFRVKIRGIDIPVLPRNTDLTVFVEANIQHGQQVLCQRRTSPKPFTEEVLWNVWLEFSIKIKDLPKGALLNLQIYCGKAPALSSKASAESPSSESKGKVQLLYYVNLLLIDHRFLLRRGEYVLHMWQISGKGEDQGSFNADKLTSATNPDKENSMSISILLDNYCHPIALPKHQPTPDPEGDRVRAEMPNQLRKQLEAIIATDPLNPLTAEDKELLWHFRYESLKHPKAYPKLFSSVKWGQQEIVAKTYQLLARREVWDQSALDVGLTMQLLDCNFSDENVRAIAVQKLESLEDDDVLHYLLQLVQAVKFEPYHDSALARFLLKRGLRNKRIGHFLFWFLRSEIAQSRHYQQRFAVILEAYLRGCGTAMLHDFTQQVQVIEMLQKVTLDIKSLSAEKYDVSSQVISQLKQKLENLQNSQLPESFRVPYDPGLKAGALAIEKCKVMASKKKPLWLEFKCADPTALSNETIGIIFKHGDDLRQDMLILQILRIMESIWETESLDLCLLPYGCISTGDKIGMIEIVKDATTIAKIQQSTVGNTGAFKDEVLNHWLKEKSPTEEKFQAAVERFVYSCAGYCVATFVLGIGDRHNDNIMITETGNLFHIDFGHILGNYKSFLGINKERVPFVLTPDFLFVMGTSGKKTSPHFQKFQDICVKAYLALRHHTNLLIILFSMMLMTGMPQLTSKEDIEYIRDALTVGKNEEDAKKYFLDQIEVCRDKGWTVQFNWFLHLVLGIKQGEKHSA
T2 sequence (P42338 whole entry): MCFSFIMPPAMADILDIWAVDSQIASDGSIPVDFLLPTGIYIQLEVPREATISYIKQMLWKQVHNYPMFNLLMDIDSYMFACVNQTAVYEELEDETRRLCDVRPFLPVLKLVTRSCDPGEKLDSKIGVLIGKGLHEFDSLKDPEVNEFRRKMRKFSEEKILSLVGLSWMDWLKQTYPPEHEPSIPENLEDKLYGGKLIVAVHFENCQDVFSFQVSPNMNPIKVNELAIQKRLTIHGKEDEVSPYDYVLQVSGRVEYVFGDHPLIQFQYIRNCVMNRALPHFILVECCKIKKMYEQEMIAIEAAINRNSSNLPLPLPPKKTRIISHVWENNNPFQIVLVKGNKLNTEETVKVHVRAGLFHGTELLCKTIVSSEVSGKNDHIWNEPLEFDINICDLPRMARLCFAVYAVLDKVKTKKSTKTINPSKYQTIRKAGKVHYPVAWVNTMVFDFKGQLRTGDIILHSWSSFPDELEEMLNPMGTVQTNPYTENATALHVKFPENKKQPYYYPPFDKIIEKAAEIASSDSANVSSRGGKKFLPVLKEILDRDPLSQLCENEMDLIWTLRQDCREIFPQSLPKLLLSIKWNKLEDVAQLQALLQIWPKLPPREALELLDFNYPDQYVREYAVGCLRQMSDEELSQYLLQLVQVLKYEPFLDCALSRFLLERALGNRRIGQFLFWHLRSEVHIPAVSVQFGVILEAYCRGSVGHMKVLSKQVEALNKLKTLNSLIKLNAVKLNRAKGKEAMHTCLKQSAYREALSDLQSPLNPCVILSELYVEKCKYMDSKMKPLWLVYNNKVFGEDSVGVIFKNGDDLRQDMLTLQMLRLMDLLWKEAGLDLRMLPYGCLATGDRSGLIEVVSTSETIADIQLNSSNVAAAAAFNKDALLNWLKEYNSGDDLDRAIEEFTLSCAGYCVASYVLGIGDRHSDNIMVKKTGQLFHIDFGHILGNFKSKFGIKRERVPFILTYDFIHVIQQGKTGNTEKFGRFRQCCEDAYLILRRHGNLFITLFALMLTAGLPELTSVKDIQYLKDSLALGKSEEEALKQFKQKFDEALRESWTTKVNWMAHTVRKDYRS
T2 sequence (P27986 whole entry partner): as the sequence (P27986 whole entry partner) above
Sequence of PI3Kδ (O00329 whole entry): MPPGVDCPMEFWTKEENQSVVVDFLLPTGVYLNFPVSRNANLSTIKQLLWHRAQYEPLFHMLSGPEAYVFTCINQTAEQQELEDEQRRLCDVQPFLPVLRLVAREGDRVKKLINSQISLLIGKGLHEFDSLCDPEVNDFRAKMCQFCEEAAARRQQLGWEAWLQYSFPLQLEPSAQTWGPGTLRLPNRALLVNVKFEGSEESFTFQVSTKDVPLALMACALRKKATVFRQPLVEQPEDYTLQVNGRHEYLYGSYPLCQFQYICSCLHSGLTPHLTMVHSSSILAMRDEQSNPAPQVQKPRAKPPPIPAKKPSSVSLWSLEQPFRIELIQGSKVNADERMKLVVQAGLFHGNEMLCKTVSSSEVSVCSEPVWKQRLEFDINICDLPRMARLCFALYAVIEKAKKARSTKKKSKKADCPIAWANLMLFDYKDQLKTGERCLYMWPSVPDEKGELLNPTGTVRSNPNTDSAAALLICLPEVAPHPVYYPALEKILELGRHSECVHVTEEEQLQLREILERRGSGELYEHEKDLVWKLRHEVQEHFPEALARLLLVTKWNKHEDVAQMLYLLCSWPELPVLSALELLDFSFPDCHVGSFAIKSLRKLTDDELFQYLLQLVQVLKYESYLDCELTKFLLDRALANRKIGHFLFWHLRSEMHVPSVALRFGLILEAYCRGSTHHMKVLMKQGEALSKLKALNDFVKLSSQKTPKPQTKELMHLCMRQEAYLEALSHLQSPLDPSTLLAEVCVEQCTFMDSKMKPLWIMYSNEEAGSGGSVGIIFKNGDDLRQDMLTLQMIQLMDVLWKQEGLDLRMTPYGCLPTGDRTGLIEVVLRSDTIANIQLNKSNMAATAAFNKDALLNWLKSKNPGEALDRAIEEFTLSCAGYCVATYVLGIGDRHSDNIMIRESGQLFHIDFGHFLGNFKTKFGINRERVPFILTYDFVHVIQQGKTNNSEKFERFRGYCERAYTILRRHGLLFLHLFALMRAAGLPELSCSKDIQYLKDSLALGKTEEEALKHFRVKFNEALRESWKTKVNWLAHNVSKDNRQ
Sequence of PI3Kδ (P27986 whole entry partner): as the sequence (P27986 whole entry partner) above

For `Cc1cccc(C)c1N1C(Cn2nc(-c3ccc4[nH]ccc4c3)c3c(N)ncnc32)=Nc2ccccc2S1(=O)=O` [15a, 3-((4-Amino-3-(1H-indol-5-yl)-1H-pyrazolo[3,4-d]pyrimidin-1-yl)methyl)-2-(2,6-dimethylphenyl)-2H-benzo[e][1,2,4]thiadiazine 1,1-dioxide], the IC50 is 217 ± 28 nM in data set [1], greater than 50000 nM in data set [2], 30600 ± 875 nM in [3] and greater than 50000 nM in [4]. Moreover, the GI50 in data set [5] came to 2130 ± 90 nM. Besides, the “SU-DHL-6 cell proliferation inhibition (in words)” value in data set [5] is “significantly inhibited; also recorded: high antiproliferative potency”.
`COc1ccc(-c2nn(CC3=Nc4ccccc4S(=O)(=O)N3c3c(C)cccc3C)c3ncnc(N)c23)cc1OC` [15b, 3-((4-Amino-3-(3,4-dimethoxyphenyl)-1H-pyrazolo[3,4-d]pyrimidin-1-yl)methyl)-2-(2,6-dimethylphenyl)-2H-benzo[e][1,2,4]thiadiazine 1,1-dioxide] gave a melting point of 220 to 222 °C. Besides, the IC50 in [1] is 266 ± 31 nM. Besides, in data set [2], the IC50 is 16400 ± 768 nM. Also, in data set [2] (ratio of IC50 values), the “selectivity for PI3Kδ over PI3Kα” value is reported as “more than 60 fold”. This molecule also yielded an IC50 in [3] of 24200 ± 495 nM. Besides, in data set [3] (ratio of IC50 values), the “selectivity for PI3Kδ over PI3Kβ” value is greater than 90 fold. Also, in [4], it took 5840 ± 135 nM to reach half-maximal inhibition (IC50). In data set [5], the GI50 came out at 2500 ± 110 nM and the “SU-DHL-6 cell proliferation inhibition (in words)” value is “significantly inhibited; also recorded: high antiproliferative potency”.
With `COc1ccc(-c2nn(CC3=Nc4ccccc4S(=O)(=O)N3c3c(C)cccc3C)c3ncnc(N)c23)cc1F` [15c, 3-((4-Amino-3-(3-fluoro-4-methoxyphenyl)-1H-pyrazolo[3,4-d]pyrimidin-1-yl)methyl)-2-(2,6-dimethyl-phenyl)-2H-benzo[e][1,2,4]thiadiazine 1,1-dioxide], in [1], the IC50 worked out at 980 ± 45 nM and the “PI3Kδ inhibitory activity (in words)” value is “marginal activity”.
As for `COc1ccc(-c2nn(CC3=Nc4ccccc4S(=O)(=O)N3c3c(C)cccc3C)c3ncnc(N)c23)cn1` [15d, 3-((4-Amino-3-(6-methoxypyridin-3-yl)-1H-pyrazolo[3,4-d]pyrimidin-1-yl)methyl)-2-(2,6-dimethylphenyl)-2H-benzo[e][1,2,4]thiadiazine 1,1-dioxide], the IC50 in [1] is 498 ± 33 nM.
`Cc1cccc(C)c1N1C(Cn2nc(-c3ccc4c(c3)OCCO4)c3c(N)ncnc32)=Nc2ccccc2S1(=O)=O` [15e, 3-((4-Amino-3-(2,3-dihydrobenzo[b][1,4]dioxin-6-yl)-1H-pyrazolo[3,4-d]pyrimidin-1-yl)methyl)-2-(2,6-dimethylphenyl)-2H-benzo[e][1,2,4]thiadiazine 1,1-dioxide] came in with a melting point of 225 to 226 °C. For the same molecule, in data set [1], the IC50 was greater than 1000 nM and the “PI3Kδ inhibitory activity (in words)” value is “not tolerated”.
In the same order, the values of `Cc1cccc(C)c1N1C(Cn2nc(-c3ccc4c(c3)OCO4)c3c(N)ncnc32)=Nc2ccccc2S1(=O)=O` [15f, 3-((4-Amino-3-(benzo[d][1,3]dioxol-5-yl)-1H-pyrazolo[3,4-d]pyrimidin-1-yl)methyl)-2-(2,6-dimethyl-phenyl)-2H-benzo[e][1,2,4]thiadiazine 1,1-dioxide] are greater than 250 °C, greater than 1000 nM and “not tolerated”.
In the case of `COc1ccc(-c2nn(CC3=Nc4ccccc4S(=O)(=O)N3c3c(C)cccc3C)c3ncnc(N)c23)cc1` [15g, 3-((4-Amino-3-(4-methoxyphenyl)-1H-pyrazolo[3,4-d]pyrimidin-1-yl)methyl)-2-(2,6-dimethylphenyl)-2H-benzo[e][1,2,4]thiadiazine 1,1-dioxide], in [1], the IC50 is greater than 1000 nM and the “PI3Kδ inhibitory activity (in words)” value is “not tolerated”.
In the same order, the values of `COc1cccc(-c2nn(CC3=Nc4ccccc4S(=O)(=O)N3c3c(C)cccc3C)c3ncnc(N)c23)c1` [15h, 3-((4-Amino-3-(3-methoxyphenyl)-1H-pyrazolo[3,4-d]pyrimidin-1-yl)methyl)-2-(2,6-dimethylphenyl)-2H-benzo[e][1,2,4]thiadiazine 1,1-dioxide] are greater than 1000 nM and “not tolerated”.
For the molecule `Cc1cccc(C)c1N1C(Cn2nc(-c3ccc(OC(F)(F)F)cc3)c3c(N)ncnc32)=Nc2ccccc2S1(=O)=O` [15i, 3-((4-Amino-3-(4-(trifluoromethoxy)phenyl)-1H-pyrazolo[3,4-d]pyrimidin-1-yl)methyl)-2-(2,6-dimethyl-phenyl)-2H-benzo[e][1,2,4]thiadiazine 1,1-dioxide], the melting point was in the range of 206 to 207 °C. For the same molecule, in [1], the IC50 is greater than 1000 nM and the “PI3Kδ inhibitory activity (in words)” value is “not tolerated”.
On to `Cc1cccc(C)c1N1C(Cn2nc(-c3ccccc3)c3c(N)ncnc32)=Nc2ccccc2S1(=O)=O` [15j, 3-((4-Amino-3-phenyl-1H-pyrazolo[3,4-d]pyrimidin-1-yl)methyl)-2-(2,6-dimethylphenyl)-2H-benzo[e]-[1,2,4]thiadiazine 1,1-dioxide], for which, in data set [1], the half-inhibitory concentration (IC50) was greater than 1000 nM and the “PI3Kδ inhibitory activity (in words)” value is “not tolerated”.
Regarding `Cc1cccc(C)c1N1C(Cn2nc(-c3ccc4[nH]ccc4c3)c3c(N)ncnc32)=Nc2ccc(F)cc2S1(=O)=O` [16a, 3-((4-Amino-3-(1H-indol-5-yl)-1H-pyrazolo[3,4-d]pyrimidin-1-yl)methyl)-2-(2,6-dimethylphenyl)-7-fluoro-2H-benzo[e][1,2,4]thiadiazine 1,1-dioxide], the melting point lay in the range of 132 to 133 °C. In data set [1], the IC50 was greater than 1000 nM and the “PI3Kδ inhibitory activity (in words)” value was “lost its activity”.
`COc1ccc(-c2nn(CC3=Nc4ccc(F)cc4S(=O)(=O)N3c3c(C)cccc3C)c3ncnc(N)c23)cc1OC` [16b, 3-((A-amino-3-(3,4-dimethoxyphenyl)-1H-pyrazolo[3,4-d]pyrimidin-1-yl)methyl)-2-(2,6-dimethylphenyl)-7-fluoro-2H-benzo[e][1,2,4]thiadiazine 1,1-dioxide] gave a melting point of 229 to 230 °C. In data set [1], the IC50 turned out to be 518 ± 62 nM and the “decrease in PI3Kδ potency on introduction of 7-fluorine” value is recorded as roughly 2 fold.
As to `COc1ccc(-c2nn(CC3=Nc4ccc(F)cc4S(=O)(=O)N3c3c(C)cccc3C)c3ncnc(N)c23)cc1F` [16c, 3-((4-Amino-3-(3-fluoro-4-methoxyphenyl)-1H-pyrazolo[3,4-d]pyrimidin-1-yl)methyl)-2-(2,6-dimethyl-phenyl)-7-fluoro-2H-benzo[e][1,2,4]thiadiazine 1,1-dioxide], the melting point lay within 201 to 202 °C. Moreover, in data set [1], the IC50 worked out at 824 ± 76 nM and the “PI3Kδ inhibitory activity (in words)” value is on record as “slight increase in potency”.
Turning to `COc1ccc(-c2nn(CC3=Nc4ccc(F)cc4S(=O)(=O)N3c3c(C)cccc3C)c3ncnc(N)c23)cn1` [16d, 3-((4-Amino-3-(6-methoxypyridin-3-yl)-1H-pyrazolo[3,4-d]pyrimidin-1-yl)methyl)-2-(2,6-dimethylphenyl)-7-fluoro-2H-benzo[e][1,2,4]thiadiazine 1,1-dioxide], in data set [1], the IC50 came to 823 ± 69 nM and the “decrease in PI3Kδ potency on introduction of 7-fluorine” value is recorded as roughly 2 fold.
With `CC[C@H](Nc1ncnc2[nH]cnc12)c1nc2cccc(F)c2c(=O)n1-c1ccccc1` [CAL-101, reference compound], the GI50 in data set [5] came to 39 ± 11 nM.
In the case of `Cc1cccc(C)c1-n1c(Cn2nc(-c3ccc4[nH]ccc4c3)c3c(N)ncnc32)nc2cccc(F)c2c1=O` [compound 3], the “selectivity for PI3Kδ over PI3Kγ” value in data set [6] is greater than 40 fold. Besides, the “selectivity for PI3Kδ over PI3Kα” value in [7] is given as “more than 3630 fold”. Besides, the “selectivity for PI3Kδ over PI3Kβ” value in data set [8] was greater than 390 fold.
As for `COc1ccc(-c2nn(Cc3nc4cccc(F)c4c(=O)n3-c3c(C)cccc3C)c3ncnc(N)c23)cc1OC` [compound 4], the “selectivity for PI3Kδ over PI3Kγ” value in [6] is 7 fold. In [7], the “selectivity for PI3Kδ over PI3Kα” value is reported as “more than 1400 fold”. Further, the “selectivity for PI3Kδ over PI3Kβ” value in data set [8] was greater than 820 fold.
